Reference: patent US8198317B2, “Methylenedioxy phenolic compounds and their use to treat disease” (The Ohio State University Research Foundation, priority 2008, dated 2012)

Tests used:
[1] = test system: Watanabe Heritable Hyperlipidemic Rabbits (WHHL); test: 8-Isoprostane enzyme linked immunoassay in WHHL rabbits; format: in vivo, rabbit; details: vs control groups
Method: […] […] Both samples underwent affinity purification (Cayman Chemical, Ann Arbor, Mich.) and then measurement of 8-isoprostane with the Stat-8-Isoprostane ELISA kit (Cayman Chemical, Ann Arbor, Mich.). […] The protein levels in liver lysates were determined by BCA Protein Assay (Pierce, Rockford, Ill.).

[2] = test system: Watanabe Heritable Hyperlipidemic Rabbits (WHHL); test: Quantitative RT-PCR of genes in thoracic aorta of WHHL rabbits; format: in vivo, rabbit
Method: Total RNA was isolated with TRIzol reagent (Invitrogen). Four microgram of total RNA was reverse transcribed by random hexamers and ThermoScript RT-PCR System (Invitrogen). Quantitative real-time PCR was performed with the Stratagene Mx3005 using SYBER Green PCR Master Mix (Applied Biosystems, Foster City, Calif.). Relative expression level compared to GAPDH was obtained. The primers used in the experiment are depicted in the table below and were purchased from Invitrogen.

[3] = test system: Watanabe Heritable Hyperlipidemic Rabbits (WHHL); test: Western blot of VCAM-1 and ICAM-1 in WHHL rabbit aorta; format: in vivo
Method: Samples were homogenized and solubilized in radioimmunoprecipitation assay buffer (50 mM Tris-HCl, pH 7.4, 150 mM NaCl, 1 mM EDTA, 1 mM NaF, 1 mM Na3VO4) and 1 mM phenylmethylsulfonyl fluoride, with 0.25% sodiumdeoxycholate and 1.0% Nonidet P-40) and centrifuged at 10,000 g and 4° C. for 30 min. The supernatant was collected and subjected to Western blot analysis. In brief, 40 μg of protein was separated by SDS-polyacrylamide gel electrophoresis and subsequently transferred to nitrocellulose membrane. The membrane was then incubated with: monoclonal anti-β-actin (Sigma, St. Louis, Mo.), monoclonal anti-VCAM (R&D Systems, Minneapolis, Minn.), monoclonal anti-ICAM (R&D Systems, Minneapolis, Minn.), monoclonal anti-phospho-eNOS(pS 1177) (BD Biosciences, Billerica, Mass.), rabbit anti-eNOS (Santa Cruz Biotechnology, Santa Cruz, Calif.), rabbit anti-phospho-Akt (Thr308) (Cell Signaling Technology, Danvers, Mass.), goat anti-Akt (Santa Cruz Biotechnology, Santa Cruz, Calif.), and rabbit anti-p65 (Cell Signaling Technology, Danvers, Mass.). Finally, the membranes were incubated with a horseradish peroxidase-linked secondary antibody and visualized with an enhanced chemiluminescence kit (Amersham Biosciences Inc., Piscataway, N.J.). Band density was quantified by densitometric analysis using ImageJ.

Patients = test: Treatment of dyslipidemia in diabetic patients (Example 25); format: in vivo, human; details: oral, 12 months
Source text: Individuals with Type I and Type II diabetes are at risk for future cardiovascular events such as heart attacks, strokes and kidney disease. These individuals often have abnormalities in lipids such as elevations in triglycerides and VLDL cholesterol. They are on treatments such as hypolipidemic drug therapy such as statins and fibrates (Gemfibrozil or Fenofibrate) to lover cholesterol levels in conjunction with glycemia lowering strategies such as Insulin, PPAR γ agents, Metformin or sulfonylurea therapy. In addition to these treatments they will also receive an acceptable dose of a composition comprising a compound of the present invention in an acceptable carrier orally chronically for durations in excess of 12 months. In one study, (3,4-methylenedioxy phenyl acetate (INV 73); 3,4-methylenedioxy-6-nitrophenol (INV 74); 3,4-methylenedioxy-6-nitrophenyl acetate (INV 75); are administered to these individuals. The patients undergo lipid measurements at baseline and at the end of treatment for a 12 month duration. At the end of 12 months of treatment, there is lowering of VLDL cholesterol and a decrease in triglycerides.

[4] = test system: New Zealand White rabbits; test: MRI assessment of atherosclerosis in balloon denuded NZW rabbits; format: in vivo, rabbit
Method: Animal Model: 15 male New Zealand White rabbits (Charles River, Mass.) were fed with high fat diet (HFD) (Harlan Teklad rabbit diet with 0.5% cholesterol, TD 87251). After 4 weeks of high fat diet, rabbits were randomized into three different treatment groups, normal control (n=5), lipoic acid (100 mg/kg/day) (n=5), INV 70-65 (100 mg/kg/day) (n=5). These drugs were administered to the animals via their chow by mixing the drugs with the high fat diet. A fixed amount of chow and drugs admixed in the chow were fed to all animals every day after carefully calculating food intake in each rabbit. Drugs were dissolved in 100% ethanol and sprayed onto the diet and kept under vacuum to let ethanol evaporate overnight. Two (2) weeks after drug or control admixed HFD, all rabbits underwent aortic balloon denudation surgeries followed by 12 weeks of continued administration of drug or controls admixed with HFD. FIG. 29 provides an outline of the experimental design.
MRI experiments were conducted at two time points: 1 week and 12 weeks after the balloon denudation procedure (FIG. 29). […] MR images were analyzed using a Siemens Leonardo Workstation (Siemens Healthcare Inc. Germany).
To assess the different rates of atherosclerosis plaque progression for each rabbit group, the aortic wall was identified in the pre-contrast images at both MRI time points. […] To account for the variable number of slices, for each rabbit a normalized aortic wall volume was calculated.
To assess plaque neovasculature progression in the different treatment groups, only the 12 weeks post balloon denudation MR images were used. […] The signal to noise ratio (SNR) for each slice was calculated as the mean signal obtained from the vessel wall divided by the standard deviation of the noise from a region outside the body. A ratio of the SNR enhancement for each rabbit was obtained by dividing the post and pre contrast calculated SNRs.

SMILES | 8-Isoprostane production in aortic homogenates [1] | 8-Isoprostane production in plasma [1] | mRNA expression of ICAM-1 ([2]; WHHL thoracic aorta) | mRNA expression of L-selectin ([2]; WHHL thoracic aorta) | mRNA expression of MCP-1 ([2]; WHHL thoracic aorta) | mRNA expression of VCAM-1 ([2]; WHHL thoracic aorta) | mRNA expression of the angiotensin II Type I receptor ([2]; WHHL, data not shown) | protein expression of ICAM-1 [3] | protein expression of VCAM-1 [3] | VLDL cholesterol (Patients) | triglycerides (Patients) | gadolinium enhancement of the aorta ([4]; compared to controls and lipoic acid treatment) | plaque burden by MRI ([4]; high fat diet, 100 mg/kg/day, 12 weeks)
CC(=O)Oc1cc2c(cc1[N+](=O)[O-])OCO2 [INV-75, 3,4-methylenedioxy-6-nitrophenyl acetate] | significantly lower | significantly lower | decreased | decreased | decreased | decreased | decreased | markedly reduced | markedly reduced | lowering | decrease |  | 
O=C(CCCCC1CCSS1)Oc1ccc2c(c1)OCO2 (stereo not shown) [INV-7065, 3,4-Methylenedioxy phenyl lipoate] |  |  |  |  |  |  |  |  |  |  |  | reduction | marked attenuation
